Test system: Samenblasen- und Prostatagewichts von Ratten
Assay: Antiandrogenic effect: inhibition of the testosterone propionate-induced increase in seminal vesicle and prostate weight of rats after subcutaneous administration
Format: in vivo
Conditions: for Testosteronpropionat-Hemmung Prostata / Testosteronpropionat-Hemmung Samenblase: rats, subcutaneous administration, Dosis 0,3 mg/Tag per animal; for Testosteronpropionat-Hemmung Prostata: prostate weight; for Testosteronpropionat-Hemmung Samenblase: seminal vesicle weight
Excerpt: Die neuen Verbindungen der allgemeinen Formel 1 besitzen starke antiandrogene Wirkung.

CC[C@H]1C[C@H]2[C@@H]3CCC4=CC(=O)CCC4=C3CC[C@]2(C)[C@H]1O [A, 16ß-Ethyl-17ß-hydroxy-4,9(10)-estradien-3-on]
Testosteronpropionat-Hemmung Prostata: 18%
Testosteronpropionat-Hemmung Samenblase: 34%
antiandrogene Wirkung (result in words, comparison of A with B at 0,3 mg pro Tier und Tag, or general statement): signifikant wirksamer

CC[C@H]1C[C@H]2[C@@H]3CCC4=CC(=O)CC[C@@H]4[C@H]3CC[C@]2(C)[C@H]1O [B, 16ß-Ethyl-17ß-hydroxy-4-estren-3-on, reference compound]
Testosteronpropionat-Hemmung Prostata: 0%
Testosteronpropionat-Hemmung Samenblase: 13%

Reference: patent publication EP0044495B1, “16-Beta ethyl steroids, compositions containing them and process for their preparation” (SCHERING AKTIENGESELLSCHAFT, priority 1980, dated 1982)
